Experimental data published in patent US20140121185A1 (Medicon Pharmaceuticals, Inc., priority 2012, published 2014).

Experiments:
p-c-RAF = experiment: Immunostaining of xenograft tissue sections; type: in vivo, nude mice; conditions: compared to control
[1] = 3-week oral toxicity in BALB/c mice; type: in vivo
Method: The toxicity of P-FTS 35 in mice was further examined. Groups of 6 week-old female BALB/c mice (5 mice/group) were given by oral gavage once a day for 3 weeks P-FTS 35: 0, 75, 150, 250 and 350 mg/kg. […] The (sub-chronic) maximum tolerated dose of P-FTS 35 (3-wk period of observation) was determined to be at least 350 mg/kg/d.

Ras [2] = experiment: Ras-GTP pull down assay in Panc-1 cells; type: cell-based, human; conditions: 24 h
Text: (§1) In the following experiments it was examined whether the pancreatic cancer growth inhibitory effect of P-FTS 35 is associated with down regulation of Ras signaling. For this purpose, we used the Ras-GTP pull down assay.

Ras [3] = experiment: Ras-GTP pull down assay in lysates from MIA PaCa-2 xenografts; type: in vivo, nude mice; conditions: compared to controls
Method: (§2) The inhibition of Ras by P-FTS 35 was further confirmed in vivo. The Ras-GTP pull down assay was used to test the capacity of P-FTS 35 to inhibit active Ras in fresh protein lysates from MIA PaCa-2 xenografts. Compared to controls, P-FTS 35, 50 and 100 mg/kg reduced RAS activation in xenografts by 62% and 70%, respectively (p<0.01, for both; FIG. 8A).

Panc-1 = experiment: Pancreatic cancer cell growth, 24 h; type: cell-based, human; conditions: Panc-1, escalating concentrations
Method: (§3) Cell growth was determined in the human pancreatic cancer cell lines AsPC-1, CFPAC-1, Capan-2, Panc-1 and MIA PaCa-2 after treatment with escalating concentrations of P-FTS 35 for 24 h.

Capan-2 = experiment: Pancreatic cancer cell growth, 24 h; type: cell-based, human; conditions: Capan-2, escalating concentrations
Method: as §3

AsPC-1 = experiment: Pancreatic cancer cell growth, 24 h; type: cell-based, human; conditions: AsPC-1, escalating concentrations
Method: as §3

CFPAC-1 = experiment: Pancreatic cancer cell growth, 24 h; type: cell-based, human; conditions: CFPAC-1, escalating concentrations
Method: as §3

MIA PaCa-2 = experiment: Pancreatic cancer cell growth, 24 h; type: cell-based, human; conditions: MIA PaCa-2, escalating concentrations
Method: as §3

p-ERK1/2 = experiment: Immunostaining of xenograft tissue sections; type: in vivo, nude mice; conditions: compared to control
Method: C: Growth of xenograft tumors treated without or with P-FTS 35 and stained for p-ERK expression. The percentage of p-ERK positive cells/field were determined and expressed as the mean±SEM (*P<0.03).
as §2

[4] = tested on: RAF/MEK/ERK and PI3K/AKT pathways; experiment: Immunoblots of Ras downstream effectors in Panc-1 cells; type: cell-based, human
Text: C: Immunoblots of p-c-RAF, c-RAF, p-MEK, MEK, p-AKT and AKT in whole cell protein extracts from Panc-1 cells treated with P-FTS 35 as indicated. Loading control: β-actin.
as §1

MIA PaCa-2 cells = experiment: Pancreatic cancer xenograft model in nude mice; type: in vivo; conditions: for reduction of tumor volume growth: day 25
Method: The in vivo chemotherapeutic potential of P-FTS 35 was assessed using a pancreatic cancer xenograft model. MIA PaCa-2 cells were injected subcutaneously into the flank areas of nude mice. When palpable tumors were observed, the mice received P-FTS 35, 50 or 100 mg/kg/d by oral gavage in corn oil or just corn oil (control) for 25 days. On day 25 of treatment, P-FTS 35, 50 mg/kg/d, and P-FTS 35, 100 mg/kg/d reduced the tumor volume growth by 62% and 65%, respectively (p<0.05; FIG. 5).

p-ERK and p-AKT = experiment: Immunoblotting of MIA PaCa-2 xenografts; type: in vivo, nude mice
Method: B: Immunoblots of p-ERK, ERK, p-AKT and AKT in whole cell protein extracts from MIA PaCa-2 xenografts. Loading control: β-actin.
as §2

[5] = Levels of PA and metabolites in blood and xenografts by HPLC; type: in vivo, mice; conditions: for metabolites detected in plasma and xenograft tumors: mice treated with PA or ASA
Method: The levels of PA and some of its metabolites in blood and xenografts from these mice were determined by HPLC according to the methods described by G. Xie et al. (Br J Pharmacol. 2012; 167(1):222-32).

CYP 2C19 = CYP 2C19 (Homo sapiens, UniProt P33261); experiment: Metabolism by recombinant human CYP isoforms; type: in vitro ADME; conditions: recombinant human CYP 25 pmol/ml, 37° C., NADPH-regenerating solution
CYP 3A4 = CYP 3A4 (Homo sapiens, UniProt P08684); experiment: Metabolism by recombinant human CYP isoforms; type: in vitro ADME; conditions: recombinant human CYP 25 pmol/ml, 37° C., NADPH-regenerating solution
CYP 2D6 = CYP 2D6 (Homo sapiens, UniProt P10635); experiment: Metabolism by recombinant human CYP isoforms; type: in vitro ADME; conditions: recombinant human CYP 25 pmol/ml, 37° C., NADPH-regenerating solution
CYP 1A2 = CYP 1A2 (Homo sapiens, UniProt P05177); experiment: Metabolism by recombinant human CYP isoforms; type: in vitro ADME; conditions: recombinant human CYP 25 pmol/ml, 37° C., NADPH-regenerating solution
liver microsomes [6] = tested on: liver microsomes
[7] = Tolerated dose in mice (PA, ASA); type: in vivo
Method: The ability of phospho-aspirin (PA) to prevent breast cancer (BC) was evaluated using MDA-MB-231 human BC cells xenografted into one of the mammary glands of nude mice (orthotopic xenografts). PA was administered orally, 120 mg/kg/d 1 wk prior to inoculating the cells (the standard prevention protocol); acetylsalicylic acid (ASA) was given at an equimolar dose of 40 mg/kg/d. This was the highest dose of ASA that these mice could tolerate on a long-term basis. The dose of PA represents <10% of its maximum tolerated dose (MTD≧1,600 mg/kg), but was chosen so that a comparison between PA and ASA was possible.

CYP 2C9 = CYP 2C9 (Homo sapiens, UniProt P11712); experiment: Metabolism by recombinant human CYP isoforms; type: in vitro ADME; conditions: recombinant human CYP 25 pmol/ml, 37° C., NADPH-regenerating solution
liver microsomes [8] = experiment: Metabolism in liver microsomes (HPLC)
[9] = tested on: MDA-MB-231 human BC cells; experiment: Prevention of orthotopic MDA-MB-231 breast cancer xenografts in nude mice; type: in vivo; conditions: PA 120 mg/kg/d orally, from 1 wk prior to inoculating the cells
[10] = cited from earlier work

Chain of CYP 3A4 (P08684 whole entry, canonical isoform): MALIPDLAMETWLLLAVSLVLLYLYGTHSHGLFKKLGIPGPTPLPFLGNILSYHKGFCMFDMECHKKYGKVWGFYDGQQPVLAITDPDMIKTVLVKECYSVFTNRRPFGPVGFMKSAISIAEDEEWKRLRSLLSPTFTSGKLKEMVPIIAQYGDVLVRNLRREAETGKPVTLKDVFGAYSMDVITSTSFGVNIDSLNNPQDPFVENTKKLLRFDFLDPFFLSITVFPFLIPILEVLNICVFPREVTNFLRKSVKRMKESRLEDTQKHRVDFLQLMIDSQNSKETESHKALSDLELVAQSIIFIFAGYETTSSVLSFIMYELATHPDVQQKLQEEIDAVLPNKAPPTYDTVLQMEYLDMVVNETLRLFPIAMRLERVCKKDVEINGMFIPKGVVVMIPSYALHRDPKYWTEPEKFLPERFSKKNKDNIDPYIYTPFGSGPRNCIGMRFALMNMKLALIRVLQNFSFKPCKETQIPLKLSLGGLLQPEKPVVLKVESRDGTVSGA
Chain of CYP 1A2 (P05177 whole entry, canonical isoform): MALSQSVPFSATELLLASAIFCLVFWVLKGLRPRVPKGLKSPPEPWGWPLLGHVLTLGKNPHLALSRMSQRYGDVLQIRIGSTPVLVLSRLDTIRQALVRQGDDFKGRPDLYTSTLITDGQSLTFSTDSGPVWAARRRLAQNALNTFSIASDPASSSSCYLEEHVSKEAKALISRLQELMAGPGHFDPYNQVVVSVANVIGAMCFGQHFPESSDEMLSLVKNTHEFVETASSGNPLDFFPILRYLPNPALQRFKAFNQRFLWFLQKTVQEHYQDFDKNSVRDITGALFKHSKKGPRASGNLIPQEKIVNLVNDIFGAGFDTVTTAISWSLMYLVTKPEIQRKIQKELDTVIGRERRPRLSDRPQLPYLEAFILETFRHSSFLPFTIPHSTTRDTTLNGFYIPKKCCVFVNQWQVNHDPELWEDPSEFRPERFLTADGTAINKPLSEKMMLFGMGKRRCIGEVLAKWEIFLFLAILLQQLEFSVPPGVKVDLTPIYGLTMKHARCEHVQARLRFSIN
Chain of CYP 2D6 (P10635 whole entry, canonical isoform): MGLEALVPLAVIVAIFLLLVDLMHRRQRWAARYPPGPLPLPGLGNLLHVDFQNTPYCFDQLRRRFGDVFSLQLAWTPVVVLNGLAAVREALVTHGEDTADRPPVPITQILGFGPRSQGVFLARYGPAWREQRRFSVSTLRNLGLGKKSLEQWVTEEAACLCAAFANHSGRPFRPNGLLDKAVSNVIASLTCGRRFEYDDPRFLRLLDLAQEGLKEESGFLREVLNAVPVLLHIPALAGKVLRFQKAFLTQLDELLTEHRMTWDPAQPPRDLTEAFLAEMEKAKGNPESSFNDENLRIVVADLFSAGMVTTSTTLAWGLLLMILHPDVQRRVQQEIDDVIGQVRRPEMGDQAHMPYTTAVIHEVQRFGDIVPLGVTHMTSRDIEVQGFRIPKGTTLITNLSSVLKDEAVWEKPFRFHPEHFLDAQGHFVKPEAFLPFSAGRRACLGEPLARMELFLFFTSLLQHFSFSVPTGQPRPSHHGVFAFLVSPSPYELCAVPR
Chain of CYP 2C9 (P11712 whole entry, canonical isoform): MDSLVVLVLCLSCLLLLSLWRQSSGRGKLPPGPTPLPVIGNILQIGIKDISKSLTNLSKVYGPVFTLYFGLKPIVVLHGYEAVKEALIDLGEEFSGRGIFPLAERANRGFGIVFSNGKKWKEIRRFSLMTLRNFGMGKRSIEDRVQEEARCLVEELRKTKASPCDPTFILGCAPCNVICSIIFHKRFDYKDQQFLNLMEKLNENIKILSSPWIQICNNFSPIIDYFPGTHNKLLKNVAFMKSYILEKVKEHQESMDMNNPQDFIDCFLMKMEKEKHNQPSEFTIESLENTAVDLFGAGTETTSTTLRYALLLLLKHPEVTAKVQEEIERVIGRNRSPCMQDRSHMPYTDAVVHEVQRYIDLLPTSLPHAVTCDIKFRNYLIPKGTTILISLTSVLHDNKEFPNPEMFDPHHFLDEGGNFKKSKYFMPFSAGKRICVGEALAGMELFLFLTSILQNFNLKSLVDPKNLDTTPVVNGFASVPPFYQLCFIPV
Chain of CYP 2C19 (P33261 whole entry, canonical isoform): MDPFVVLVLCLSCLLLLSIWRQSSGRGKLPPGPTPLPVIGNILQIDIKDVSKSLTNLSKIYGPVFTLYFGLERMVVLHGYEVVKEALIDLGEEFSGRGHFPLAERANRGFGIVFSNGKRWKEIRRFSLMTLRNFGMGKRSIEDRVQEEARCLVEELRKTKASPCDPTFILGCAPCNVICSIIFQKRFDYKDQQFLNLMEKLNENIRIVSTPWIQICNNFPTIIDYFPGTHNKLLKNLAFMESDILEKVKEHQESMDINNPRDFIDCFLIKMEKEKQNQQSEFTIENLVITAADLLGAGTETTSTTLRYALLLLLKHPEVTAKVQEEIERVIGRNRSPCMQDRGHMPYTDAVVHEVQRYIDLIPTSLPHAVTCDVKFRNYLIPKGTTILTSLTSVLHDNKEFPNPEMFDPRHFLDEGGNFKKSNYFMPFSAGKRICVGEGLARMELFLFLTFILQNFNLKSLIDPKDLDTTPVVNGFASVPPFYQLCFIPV

For CCOP(=O)(OCC)OCCCCOC(=O)c1ccccc1SC/C=C(\C)CC/C=C(\C)CCC=C(C)C, the “reduction of expression of p-c-RAF” value (p-c-RAF) was 73%, the “weight loss or other signs of toxicity” value ([1]; 75, 150, 250 and 350 mg/kg oral gavage once a day for 3 weeks, female BALB/c mice) was “no weight loss or other signs of toxicity” and the MTD at 3 weeks ([1]; female, BALB/c, mouse, in vivo, 3-wk period of observation, oral gavage, read-out: (sub-chronic) maximum tolerated dose) was at least 350 mg/kg/day. For the same molecule, the “decrease of Ras-GTP compared with the parent compound (FTS)” value (Ras [2]; 50 μM) was “more pronounced”, the “inhibition of active Ras (Ras-GTP)” value (Ras [2]) was “significantly inhibited active Ras (Ras-GTP) in a concentration-dependent manner” and the “reduction of RAS activation in xenografts” value (Ras [3]; 50 mg/kg) was 62%. The “reduction of RAS activation in xenografts” value (Ras [3]; 100 mg/kg) was 70%, the “cell growth, % control” value (Panc-1) was “decreases pancreatic cancer cell growth in a concentration-dependent manner” and the “cell growth, % control” value (Capan-2) was “decreases pancreatic cancer cell growth in a concentration-dependent manner”. For the same molecule, the “cell growth, % control” value (AsPC-1) was “decreases pancreatic cancer cell growth in a concentration-dependent manner”, the “cell growth, % control” value (CFPAC-1) was “decreases pancreatic cancer cell growth in a concentration-dependent manner” and the “cell growth, % control” value (MIA PaCa-2) was “decreases pancreatic cancer cell growth in a concentration-dependent manner”. The “reduction of expression of p-ERK1/2” value (p-ERK1/2) was 71%, the “inhibition of the RAF/MEK/ERK and PI3K/AKT pathways” value [4] was “significant time-dependent inhibition” and the “reduction of tumor volume growth” value (MIA PaCa-2 cells; 50 mg/kg/d oral gavage in corn oil) was 62%. For the same molecule, the “reduction of tumor volume growth” value (MIA PaCa-2 cells; 100 mg/kg/d oral gavage in corn oil) was 65%, the “tolerability in the efficacy study” value (MIA PaCa-2 cells; 50 or 100 mg/kg/d, 25 days) was “well tolerated” and the “weight loss or other signs of toxicity in the efficacy study” value (MIA PaCa-2 cells; 50 or 100 mg/kg/d, 25 days) was “no weight loss or other signs of toxicity”. For the same molecule, the “p-ERK and p-AKT in xenografts by immunoblotting” value (p-ERK and p-AKT) was “inhibition of p-ERK and p-AKT”.

In the case of CC(=O)Oc1ccccc1C(=O)O [ASA, acetylsalicylic acid], the “metabolites detected in plasma and xenograft tumors” value [5] is reported as “Only salicylic acid (SA) was detected”, the “oxidation (conversion of PSA to 5-OH-PSA) by CYP 2C19” value (CYP 2C19) is reported as “cannot be oxidized” and the “oxidation by CYP 3A4” value (CYP 3A4) is reported as “cannot be oxidized”. For the same molecule, the “oxidation (conversion of PSA to 5-OH-PSA) by CYP 2D6” value (CYP 2D6) was “cannot be oxidized”, the “oxidation by CYP 1A2” value (CYP 1A2) was “cannot be oxidized” and the “oxidation by liver microsomes” value (liver microsomes [6]) was “not appreciably oxidized”. The “highest dose that these mice could tolerate on a long-term basis” value ([7]; nude mice) was 40 mg/kg/day and the “oxidation by CYP 2C9” value (CYP 2C9) was “cannot be oxidized”.

For CCOP(=O)(OCC)OCCCCOC(=O)c1ccccc1OC(C)=O [PA, phospho-aspirin], the “intact PA in plasma or xenografts” value ([5]; mice treated with PA 120 mg/kg/d, HPLC) was “No intact PA in either plasma or xenografts was detected”, the “metabolites detected in plasma and xenograft tumors” value [5] was “Only salicylic acid (SA) was detected” and the “difference in SA levels between PA and ASA groups” value ([5]; plasma and xenografts) was “no difference in SA levels”. The “major metabolites detected in liver microsomes” value (liver microsomes [8]; HPLC) was “phospho-salicylic acid [PSA], 3-OH-PSA and 5-OH-PSA”, the “deacetylation in liver microsomes” value (liver microsomes [8]; PA-treated liver microsomes) was “readily deacetylated” and the “average tumor volume reduced compared to controls” value [9] was 62%. For the same molecule, the “treated mice that had no tumors” value ([9]; of the 20 treated mice) was 20%, the “treated mice that had tumors <100 mm^3” value ([9]; of the 20 treated mice) was 30% and the “maximum tolerated dose (MTD)” value ([7]; mice) was ≥ 1,600 mg/kg.

In the case of O=C(O)c1ccccc1O [SA, salicylic acid], the “oxidation by liver microsomes” value (liver microsomes [6]) is reported as “not appreciably oxidized”.

For CC1=C(CC(=O)O)c2cc(F)ccc2/C1=C\c1ccc([S+](C)[O-])cc1 (stereo not drawn) [sulindac], the “gastrointestinal side effects, share of patients” value [10] is listed as “up to 20%” and the “skin rash and pruritus, share of patients” value [10] is listed as 5%.
